Assay results as given in patent publication US20250346871A1, “PRENYLTRANSFERASES AND METHODS OF MAKING AND USE THEREOF” (priority 2020, published 2025).

Columns and labels:
[1] = test system: APT73 (SEQ ID NO: 4) variant APT73.30 (S205R, S223A, K225H, A260G, Y276L, G282R, A283C, S284L; residues 285 onward removed from the C-terminus), SEQ ID NO: 56; test: Kinetic characterization of purified enzyme with OA and GPP as substrates; type: biochemical; details: APT73.30, purified enzyme
Experimental: (§1) In order to compare the enzyme's activities more accurately, larger cultures of the best hits and controls from the first screen were grown and the enzymes were purified according to the following protocol. Glycerol stocks of each recombinant strain were used to inoculate 2 mL of LB with 50 μg/mL kanamycin. […]. The cultures were grown at 37° C. with 250 rpm shaking until an OD600 of approximately 0.8-1. At this point, the cultures were transferred to a shaker at room temperature for 30 min, after which they were induced with 0.25 mM IPTG. After 16 h at 150 rpm shaking, the cells were pelleted by centrifugation
(§2) Cell pellets were resuspended in 10 mL lysis buffer (B-PER with 5 mM MgCl2, 100 μg/mL lysozyme, and 2 μL/mL DNaseI (TURBO DNase ThermoFisher)). After incubation at room temperature for 10 min, the cell debris were removed by centrifugation at 4750 rpm for 10 min at 4° C. Lysates were loaded in pre-equilibrated cobalt spin columns (ThermoFisher, HisPur Cobalt spin column, 1 mL) and tagged proteins were purified according to manufacturer's protocol. The eluted proteins were exchanged into the final buffer (TrisHCl 25 mM, 5 mM MgCl2, 150 mM NaCl 10% v/v glycerol) using Amicon Ultra 15 centrifugal filters (10 kDa MWCO). Proteins can be stored at −20° C. for at least a week.
(§3) Selected mutants from the previous screenings were cloned in E. coli vectors and were purified as described in Example 3.

[2] = test system: APT73 (SEQ ID NO: 4) variant APT73.13 (S205R, G282R, A283C, S284L; residues 285 onward removed from the C-terminus), SEQ ID NO: 36; test: as above; type: biochemical; details: APT73.13, purified enzyme
Experimental: as §1, §2, §3

[3] = test system: APT73 (SEQ ID NO: 4) variant APT73.47 (A156I, S205R, S223A, K225H, A260G, Y276L, G282R, A283C, S284L; residues 285 onward removed from the C-terminus), SEQ ID …; test: as above; type: biochemical; details: APT73.47, purified enzyme
Experimental: as §1, §2, §3

[4] = test system: APT73 (SEQ ID NO: 4) variant APT73.52 (S205R, S223A, K225H, A260G, Y276E, G282R, A283C, S284L; residues 285 onward removed from the C-terminus), SEQ ID NO: 69; test: as above; type: biochemical; details: APT73.52, purified enzyme
Experimental: as §1, §2, §3

[5] = test system: APT89, aromatic prenyltransferase, wild type, SEQ ID NO: 2 (expressed with His tag: SEQ ID NO: 9, 81); test: as above; type: biochemical
Experimental: as §1, §2, §3

[6] = test system: NphB, aromatic prenyltransferase from Streptomyces sp. (strain CL190), wild type, Uniprot ID: Q4R2T2, SEQ ID NO: 20; details: OA and GPP as substrates, from literature (Valliere et al. Nature Commun. 2019, 10, 565); cited from earlier work

| Compound | Kcat (CBGA) [1] [s⁻¹] | Kcat (CBGA) [2] [s⁻¹] | Kcat (CBGA) [3] [s⁻¹] | Kcat (CBGA) [4] [s⁻¹] | Kcat (CBGA) [5] [s⁻¹] | Km [1] [µM] | Km [2] [µM] | Km [3] [µM] | Km [4] [µM] | Km [5] [µM] | Km [6] [µM] |
| --- | --- | --- | --- | --- | --- | --- | --- | --- | --- | --- | --- |
| CCCCCc1cc(O)c(C/C=C(\C)CCC=C(C)C)c(O)c1C(=O)O [CBGA, cannabigerolic acid] | 0.113 | 0.049 | 0.175 | 0.08 | 0.001 | – | – | – | – | – | – |
| CCCCCc1cc(O)cc(O)c1C(=O)O [OA, olivetolic acid] | – | – | – | – | – | 501 ± 88 | 1100 ± 93 | 205 ± 165 | 101 ± 14 | 33 ± 4 | 640 |
